BigSolDB 2.1

CC(C)C(=O)Nc1ccc([N+](=O)[O-])c(C(F)(F)F)c1
solubility (mole fraction)
Settings | 278.15 K | 283.15 K | 288.15 K | 293.15 K | 298.15 K | 303.15 K | 308.15 K | 313.15 K | 318.15 K | 323.15 K
in 1,4-dioxane | – | 0.108 | 0.127 | 0.151 | 0.177 | 0.203 | 0.231 | 0.262 | 0.299 | 0.348
in THF | 0.259 | 0.276 | 0.297 | 0.321 | 0.348 | 0.376 | 0.405 | 0.436 | 0.469 | 0.502
in acetone | 0.186 | 0.201 | 0.228 | 0.258 | 0.291 | 0.327 | 0.366 | 0.407 | 0.45 | 0.49
in acetonitrile | 0.0566 | 0.0711 | 0.0902 | 0.119 | 0.157 | 0.197 | 0.246 | 0.296 | 0.355 | 0.427
in ethanol | 0.0503 | 0.0556 | 0.063 | 0.0709 | 0.0797 | 0.0908 | 0.102 | 0.117 | 0.133 | 0.154
in ethyl acetate | 0.161 | 0.178 | 0.191 | 0.206 | 0.227 | 0.246 | 0.269 | 0.29 | 0.321 | 0.351
in isobutanol | 0.0307 | 0.0381 | 0.0487 | 0.0632 | 0.0776 | 0.0965 | 0.118 | 0.141 | 0.171 | 0.207
in isopropanol | 0.0539 | 0.0609 | 0.0692 | 0.0799 | 0.0918 | 0.105 | 0.121 | 0.139 | 0.161 | 0.182
in methanol | 0.0401 | 0.047 | 0.0555 | 0.0641 | 0.0757 | 0.0878 | 0.103 | 0.12 | 0.142 | 0.166
in methyl acetate | 0.141 | 0.157 | 0.179 | 0.208 | 0.24 | 0.275 | 0.312 | 0.35 | 0.396 | 0.447
in n-butanol | 0.049 | 0.0549 | 0.0622 | 0.0709 | 0.0797 | 0.0904 | 0.103 | 0.117 | 0.135 | 0.156
in n-propanol | 0.049 | 0.0547 | 0.0624 | 0.0698 | 0.0784 | 0.0889 | 0.101 | 0.115 | 0.132 | 0.15
